Test results published in US6858430B1, “Process for cultivation of algae” (Council of Scientific and Industrial Research, priority 2000, dated 2005).

System: pigmented filamentous callus of Eucheuma
Test: Enhancement of somatic embryogenesis and micro-propagule production in embedded pigmented callus cultures by plant growth regulators
Format: cell-based, Eucheuma striatum (=Kappaphycus alvarezii)
Details: 23° C., one month
Description: The production of micro-propagules clonally through somatic embryogenesis of pigmented callus has been established. The somatic embryogenesis and micro-propagule production may further be enhanced by subculturing thin section of pigmented filamentous callus blocks (2 mm×3 mm×2 mm) in 3 mm thick agar plates (0.3-0.6% agar) with PES medium as embedded cultures. The callus blocks implanted in an agar medium grew rapidly in one month and formed colored spots in an agar with abundantly growing branched filamentous pigmented callus. The newly regenerated filamentous callus from blocks eventually transformed to produce densely pigmented (dark brown colour) micro-colonies similar to somatic embryos in branches of some filaments. […] Transfer of such filamentous callus with somatic embryos from solid (agar plates) medium to liquid PES medium facilitated rapid growth and morphogenesis in micro-propagules.
The production of micro-propagules clonally through somatic embryogenesis of pigmented callus of Eucheuma has been carried out. The somatic embryogenesis and micro-propagule production may be enhanced by subculturing thin section of pigmented filamentous callus blocks (2 mm×3 mm×2 mm) in 3 mm thick agar plates (0.4% agar) with PES medium as embedded cultures at 23° C. under cool white fluorescent fights at 50 μmol photon m^−2s^−1 irradiance with a 12:12 light and dark cycle. […]

Compound	production of micro-propagules / formation of somatic embryos in pigmented filamentous callus (0.1 mg l-1 each of naphthalenacetic acid and 6-benzylaminopurine combined in 0.4% agar PES medium)	production of micro-propagules / formation of somatic embryos in pigmented filamentous callus (0.1, 1.0 mg l-1 naphthalenacetic acid alone in 0.4% agar PES medium)
c1ccc(CNc2ncnc3nc[nH]c23)cc1 [6-benzylaminopurine]	further enhanced	
naphthalenacetic acid		further enhanced
